Test results reported in ChEMBL document CHEMBL1201862, “PubChem BioAssay data set” (2004).
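Cultured in 96-well plates, cells were exposed to test compound for 48 hours across five concentrations. The concentration for 50% growth inhibition is given as GI50.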 Active and inactive are the calls of the source. Cut-off read from the data, not from the text of the source: active = GI50 up to about 1.1 µM and inactive = higher.

Assays:
Experiment in all cases: NCI tumour cell line growth inhibition, 48 h
A498 = system: A498
ACHN = system: ACHN
CCRF-CEM = system: CCRF-CEM
COLO 205 = system: COLO 205
HCT-116 = system: HCT-116
KM12 = system: KM12
MOLT-4 = system: MOLT-4
OVCAR-3 = system: OVCAR-3
OVCAR-8 = system: OVCAR-8
SF-539 = system: SF-539
SK-MEL-28 = system: SK-MEL-28
SN12C = system: SN12C
SNB-19 = system: SNB-19
SW-620 = system: SW-620
TK-10 = system: TK-10
RPMI-8226 = system: RPMI-8226
HOP-92 = system: HOP-92

Measured: GI50

COC(=O)C(=O)C(C(=O)OC)C(=O)C(=O)Nc1cc(Cl)c(C)cc1S(=O)(=O)O (stereo not given)
inactive: A498 > 100 µM | ACHN > 100 µM | CCRF-CEM > 100 µM | COLO 205 > 100 µM | HCT-116 > 100 µM | KM12 > 100 µM | MOLT-4 > 100 µM | OVCAR-3 > 100 µM | OVCAR-8 > 100 µM | SF-539 > 100 µM | SK-MEL-28 > 100 µM | SN12C > 100 µM | SNB-19 > 100 µM | SW-620 > 100 µM | TK-10 > 100 µM

COc1ccc(C=C2C(=O)OC(C)(C)OC2=O)cc1OC
inactive: A498 > 100 µM | ACHN > 100 µM | CCRF-CEM > 100 µM | COLO 205 > 100 µM | KM12 > 100 µM | MOLT-4 > 100 µM | OVCAR-3 > 100 µM | OVCAR-8 > 100 µM | RPMI-8226 > 100 µM | SK-MEL-28 > 100 µM | SN12C > 100 µM | SNB-19 > 100 µM | SW-620 > 100 µM | TK-10 > 100 µM

O=C(CN(c1ccccc1)c1ccccc1)n1nnc2ccccc21
inactive: ACHN 36.5 µM | CCRF-CEM 35 µM | COLO 205 36.9 µM | HCT-116 24.3 µM | MOLT-4 28.2 µM | OVCAR-3 44.6 µM | OVCAR-8 39.3 µM | RPMI-8226 34.8 µM | SF-539 24.4 µM | SK-MEL-28 37.2 µM | SN12C 53 µM | SNB-19 24.5 µM | SW-620 30 µM | TK-10 > 100 µM

CCOC(=O)C1Sc2ccccc2N=C1C (stereo not given)
inactive: A498 > 100 µM | ACHN > 100 µM | COLO 205 > 100 µM | HCT-116 > 100 µM | HOP-92 > 100 µM | KM12 > 100 µM | MOLT-4 > 100 µM | OVCAR-3 > 100 µM | OVCAR-8 > 100 µM | RPMI-8226 > 100 µM | SF-539 > 100 µM | SK-MEL-28 > 100 µM | SN12C > 100 µM | SNB-19 > 100 µM | SW-620 > 100 µM | TK-10 > 100 µM

O=c1c(O)c(-c2ccc(O)c(O)c2)oc2cc(O)cc(O)c12 [QUERCETIN]
inactive: A498 > 100 µM | ACHN > 100 µM | CCRF-CEM 30.8 µM | COLO 205 33.6 µM | HCT-116 46.1 µM | KM12 42.9 µM | MOLT-4 76.9 µM | OVCAR-3 > 100 µM | OVCAR-8 72.6 µM | SF-539 47.5 µM | SK-MEL-28 94.6 µM | SN12C > 100 µM | SNB-19 61.2 µM | SW-620 20.3 µM | TK-10 > 100 µM

O=C1CC23CCCCCCCCCCC2(C1)CC(=O)C3 (stereo not given)
inactive: ACHN 29 µM | CCRF-CEM 18.9 µM | COLO 205 18.4 µM | HOP-92 21.1 µM | KM12 21.3 µM | MOLT-4 18.7 µM | OVCAR-3 17.7 µM | OVCAR-8 31.2 µM | RPMI-8226 19.4 µM | SF-539 33.7 µM | SK-MEL-28 38.7 µM | SN12C 17.6 µM | SNB-19 22.9 µM | SW-620 40.6 µM | TK-10 38.5 µM

Cc1ccc(NC(=O)C(=O)Cc2nc3ccccc3o2)c(C)c1
inactive: ACHN > 100 µM | COLO 205 > 100 µM | HCT-116 > 100 µM | HOP-92 > 100 µM | KM12 > 100 µM | OVCAR-3 > 100 µM | OVCAR-8 > 100 µM | RPMI-8226 > 100 µM | SF-539 > 100 µM | SK-MEL-28 > 100 µM | SN12C > 100 µM | SNB-19 > 100 µM | SW-620 > 100 µM | TK-10 > 100 µM

CCCN(CCC)C(=O)Cc1c2n(c3ccccc13)CCCc1ccccc1-2
inactive: ACHN 12.6 µM | CCRF-CEM 17.4 µM | COLO 205 15.5 µM | HCT-116 13.5 µM | HOP-92 4.2 µM | KM12 12.6 µM | MOLT-4 12.9 µM | OVCAR-3 16 µM | OVCAR-8 16.3 µM | RPMI-8226 14.4 µM | SF-539 14.9 µM | SK-MEL-28 16.3 µM | SN12C 15.5 µM | SNB-19 14.6 µM | SW-620 16.6 µM | TK-10 15.7 µM

COc1cc(C(C#N)NNc2nc(C)cc(O)n2)cc(OC)c1OC (stereo not given)
inactive: ACHN > 100 µM | CCRF-CEM > 100 µM | COLO 205 > 100 µM | HCT-116 > 100 µM | HOP-92 51.6 µM | KM12 > 100 µM | OVCAR-3 > 100 µM | OVCAR-8 > 100 µM | RPMI-8226 > 100 µM | SF-539 > 100 µM | SK-MEL-28 > 100 µM | SN12C > 100 µM | SW-620 > 100 µM | TK-10 > 100 µM

COCCNC(=O)C1C(=O)C(=O)N(CCOC)C1=O (stereo not given)
inactive: A498 > 100 µM | ACHN > 100 µM | CCRF-CEM > 100 µM | COLO 205 > 100 µM | HCT-116 > 100 µM | HOP-92 > 100 µM | OVCAR-3 > 100 µM | OVCAR-8 > 100 µM | SF-539 > 100 µM | SK-MEL-28 > 100 µM | SN12C > 100 µM | SNB-19 > 100 µM | SW-620 > 100 µM | TK-10 > 100 µM

O=c1/c(=C/c2c(O)ccc3ccccc23)sc2nc3ccccc3n12
inactive: A498 > 100 µM | ACHN > 100 µM | CCRF-CEM > 100 µM | COLO 205 > 100 µM | HCT-116 > 100 µM | HOP-92 > 100 µM | KM12 > 100 µM | OVCAR-3 > 100 µM | OVCAR-8 > 100 µM | SF-539 > 100 µM | SK-MEL-28 > 100 µM | SN12C > 100 µM | SNB-19 > 100 µM | SW-620 > 100 µM | TK-10 > 100 µM

CCOc1ccc([Se][Se]c2ccc(OCC)cc2)cc1
inactive: COLO 205 > 100 µM | HCT-116 56.1 µM | KM12 > 100 µM | OVCAR-3 > 100 µM | OVCAR-8 > 100 µM | RPMI-8226 28.1 µM | SF-539 > 100 µM | SK-MEL-28 > 100 µM | SN12C > 100 µM | SNB-19 > 100 µM | SW-620 > 100 µM | TK-10 > 100 µM

CCOC(=O)C(NC(=O)c1nc[nH]c1[N+](=O)[O-])C(C)C (stereo not given)
inactive: A498 > 100 µM | ACHN > 100 µM | CCRF-CEM 47.2 µM | COLO 205 82 µM | HCT-116 > 100 µM | KM12 > 100 µM | MOLT-4 72.4 µM | OVCAR-3 > 100 µM | OVCAR-8 84.9 µM | RPMI-8226 72.6 µM | SF-539 > 100 µM | SK-MEL-28 > 100 µM | SN12C > 100 µM | SNB-19 > 100 µM | SW-620 > 100 µM

O=C1CCC2CCc3cccc4oc1c2c34 (stereo not given)
inactive: A498 > 100 µM | ACHN > 100 µM | CCRF-CEM > 100 µM | COLO 205 > 100 µM | HCT-116 > 100 µM | HOP-92 75.5 µM | MOLT-4 96.2 µM | OVCAR-3 > 100 µM | OVCAR-8 > 100 µM | RPMI-8226 > 100 µM | SF-539 > 100 µM | SK-MEL-28 > 100 µM | SN12C > 100 µM | SNB-19 > 100 µM | SW-620 > 100 µM | TK-10 > 100 µM
